Reference: patent US5128244A, “Assay for dioxins” (Wisconsin Alumni Research Foundation, priority 1989, dated 1992)

How the values were obtained:
Ah receptor [1] = biological target: T1, Ah receptor (Mus musculus, UniProt P30561); test: Competitive binding assay of TCDD against [125I] radioligand for Ah receptor; set-up: species or system C57BL/6J mice
T1 construct: full-length receptor (C57BL/6J carries Ahr b-1 allele)
T1 sequence (P30561 10-848): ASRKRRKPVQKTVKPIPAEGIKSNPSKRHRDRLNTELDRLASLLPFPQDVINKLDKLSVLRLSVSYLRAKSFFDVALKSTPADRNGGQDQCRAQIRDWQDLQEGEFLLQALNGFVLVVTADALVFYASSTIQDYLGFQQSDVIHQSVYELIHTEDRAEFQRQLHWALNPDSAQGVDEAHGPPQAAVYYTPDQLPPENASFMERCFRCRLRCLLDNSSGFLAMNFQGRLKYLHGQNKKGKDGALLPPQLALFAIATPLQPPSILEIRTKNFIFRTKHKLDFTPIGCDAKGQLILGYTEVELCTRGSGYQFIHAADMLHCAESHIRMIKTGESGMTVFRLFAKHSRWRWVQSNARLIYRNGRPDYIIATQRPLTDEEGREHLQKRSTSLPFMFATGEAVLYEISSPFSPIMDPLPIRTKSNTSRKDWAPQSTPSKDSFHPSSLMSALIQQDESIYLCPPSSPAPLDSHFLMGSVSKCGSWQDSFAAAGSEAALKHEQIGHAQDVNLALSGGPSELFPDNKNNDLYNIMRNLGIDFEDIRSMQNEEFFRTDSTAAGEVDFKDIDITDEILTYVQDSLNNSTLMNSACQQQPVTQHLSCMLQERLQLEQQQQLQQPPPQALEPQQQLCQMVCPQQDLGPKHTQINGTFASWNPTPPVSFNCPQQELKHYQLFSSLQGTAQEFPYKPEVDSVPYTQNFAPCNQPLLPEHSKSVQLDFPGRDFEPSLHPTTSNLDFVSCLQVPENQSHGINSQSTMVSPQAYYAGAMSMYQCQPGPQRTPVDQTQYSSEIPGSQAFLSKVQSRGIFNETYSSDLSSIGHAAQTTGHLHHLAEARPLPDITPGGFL
Method: C57BL/6J mice were purchased from The Jackson Laboratory, Bar Harbor, Me., and bred in our laboratory. See generally A. Poland et al., 261 J. Biol. Chem. 6352-65 (May 15, 1986) (not prior art). One-hundred adult male and female mice were killed by cervical dislocation, their livers removed, rinsed with ice cold KCl (150 mM), homogenized in 9 vol of MSSENG buffer, and centrifuged at 10,000 xg for 20 min at 4° C. The post-mitochondrial supernatant was carefully removed to avoid contamination by the surface lipid layer, and subjected to centrifugation at 105,000 x g. The supernatant (approx. 10 mg protein/ml) was separated from surface lipids and the microsomal pellet, and stored at -80° C. until processed further.
The frozen cytosolic fraction was thawed, and placed in an ice bath with slow stirring. A saturated solution of ammonium sulfate in MEN buffer was added to the cytosolic preparation, to a final concentration of 40%, over a period of 30 min, and stirred for an additional 30 min. The solution was centrifuged at 10,000 x g for 20 min, the supernatant fraction removed, slowly brought to an ammonium sulfate concentration of 55%, stirred for an additional 30 min, centrifuged at 10,000xg, and the supernatant discarded. The 40-55% ammonium sulfate precipitate was resuspended in 55% ammonium sulfate in MN, and aliquots equivalent to 0.5 g wet weight of liver (15 mg protein) were placed in 12×75 mm borosilicate tubes (VWR Scientific, San Francisco, Calif.), and spun at 5000xg. […]
The assay was terminated by the addition of a 0.5 ml of suspension of charcoal/gelatin (3%/0.3%) in MN buffer with vigorous stirring on a vortex mixer for 3 sec., and incubated for 10 min at 4° C. […] A one ml aliquot of the supernatant fraction of each tube was transferred to 12×75 […] polypropylene tubes (VWR Scientific, San Francisco, CA), and the Ah bound radioligand quantified in a MINAXI Series-5000 gamma scintillation counter (United Technologies/Packard Instrument Co., Downer Grove, Ill.). […]

Ah receptor [2] = biological target: T1, Ah receptor; test: Radioligand stock solution aged 120 days, tested in the Ah receptor binding assay; set-up: species or system C57BL/6J mice; conditions: stock solution of radioligand 120 days after its synthesis
Text: [^125 I]decays to tellurium with a half-life of 60 days. Thus, radiodecay could produce unlabelled 2,3-dibromodibenzo-p-dioxin in the radioligand stock solution. We tested whether radioligand decay products might compete for receptor binding and diminish radioligand binding.

Row | SMILES | minimal detectable amount of TCDD (Ah receptor [1]; 1 ml assay) | minimal detectable concentration of TCDD (Ah receptor [1]; 1 ml assay, statistical analysis of standard curve of specifically bound radioligand v. log concentration of competing TCDD) | minimal detectable amount of TCDD (Ah receptor [1]; total assay volume reduced to 0.25 ml) | deviation in the quality control parameters compared to freshly prepared radioligand (Ah receptor [2])
1 | Clc1cc2c(cc1Cl)Oc1cc(Cl)c(Cl)cc1O2 [TCDD, 2,3,7,8-tetrachloro-dibenzo-p-dioxin] | 3.2 pg | 10 pM | 0.8 pg | 
2 | Brc1cc2c(cc1Br)Oc1cc([125I])ccc1O2 [radioligand, [^125 I]-2-iodo-7,8-dibromo-dibenzo-p-dioxin] |  |  |  | no significant deviation
